Source: patent publication US20100004234A1, “SPECIFIC KINASE INHIBITORS” (Kosan Biosciences Incorporated, priority 2004, published 2010)
Where two headings read alike, the source gives them in different places.

Experiments:
p70S6K(h) = test: Kinase panel, residual activity; assay type: biochemical, human; conditions: 0.2 μM
Method: (§1) In this panel of 124 kinases, 18 of the 19 kinases identified as having an active site cysteine were inhibited to some extent by hypothemycin at a concentration of 0.2 μM and/or 2 μM.

CDK2/cyclinE(h) = CDK2/cyclinE(h) (Homo sapiens, UniProt P24941); test: Kinase panel, residual activity; assay type: biochemical; conditions: read-out: Percent residual activity
Method: as §1

CDK3/cyclinE(h) = CDK3/cyclinE(h) (Homo sapiens, UniProt Q00526); test: Kinase panel, residual activity; assay type: biochemical; conditions: read-out: Percent residual activity
Method: as §1

CSK(h) = CSK(h) (Homo sapiens, UniProt P41240); test: Kinase panel, residual activity; assay type: biochemical; conditions: read-out: Percent residual activity
Method: as §1

Fes(h) = Fes(h) (Homo sapiens, UniProt P07332); test: Kinase panel, residual activity; assay type: biochemical; conditions: read-out: Percent residual activity
Method: as §1

IRAK4(h) = IRAK4(h) (Homo sapiens, UniProt Q9NWZ3); test: Kinase panel, residual activity; assay type: biochemical; conditions: read-out: Percent residual activity
Method: as §1

MAPK1(h) = MAPK1(h) (Homo sapiens, UniProt P27361); test: Kinase panel, residual activity; assay type: biochemical; conditions: read-out: Percent residual activity
Method: as §1

MAPK2(h) = MAPK2(h) (Homo sapiens, UniProt P28482); test: Kinase panel, residual activity; assay type: biochemical; conditions: read-out: Percent residual activity
Method: as §1

PKCδ(h) = PKCδ(h) (Homo sapiens, UniProt Q05655); test: Kinase panel, residual activity; assay type: biochemical; conditions: read-out: Percent residual activity
Method: as §1

PRK2(h) = PRK2(h) (Homo sapiens, UniProt Q16513); test: Kinase panel, residual activity; assay type: biochemical; conditions: read-out: Percent residual activity
Method: as §1

Pim-1(h) = Pim-1(h) (Homo sapiens, UniProt P11309); test: Kinase panel, residual activity; assay type: biochemical; conditions: read-out: Percent residual activity
Method: as §1

ROCK-II(h) = ROCK-II(h) (Homo sapiens, UniProt O75116); test: Kinase panel, residual activity; assay type: biochemical; conditions: read-out: Percent residual activity
Method: as §1

Rse(h) = Rse(h) (Homo sapiens, UniProt Q06418); test: Kinase panel, residual activity; assay type: biochemical; conditions: read-out: Percent residual activity
Method: as §1

Rsk1(h) = Rsk1(h) (Homo sapiens, UniProt Q15418); test: Kinase panel, residual activity; assay type: biochemical; conditions: read-out: Percent residual activity
Method: as §1

cSRC(h) = cSRC(h) (Homo sapiens, UniProt P12931); test: Kinase panel, residual activity; assay type: biochemical; conditions: read-out: Percent residual activity
Method: as §1

[1] = test system: COLO829 (Human melanoma, B-Raf V599E); test: Cell proliferation assay (Cell Titer Glo); assay type: cell-based
Method: (§2) In one illustrative method, cells are treated with various concentrations of the inhibitor in 96 well plates, incubated at 37° C./5% CO2 for three days, and analyzed using the Cell Titer Glo kit (Promega).
(§3) COLO829 is a human melanoma cell line. HT29 is a human colon cancer cell line. Both cell lines have a V600E B-Raf mutation. SKOV3 is an ovarian cancer cell line having wild-type B-Raf. EKR2 (extra-cellular signal regulated kinase 2) is a kinase in the Ras/B-Raf MAP kinase cascade pathway.

[2] = test system: HT29 (Human colon, B-Raf V599E); test: Cell proliferation assay (Cell Titer Glo); assay type: cell-based
Method: as §2, §3

[3] = test system: SKOV3 (ovarian cancer cell line, wild-type B-Raf); test: Cell proliferation assay; assay type: cell-based; conditions: Homo sapiens, SK-OV-3, read-out: Cell Line IC50 SKOV3
Method: as §2, §3

[4] = test system: phosphorylated ERK in COLO829 cells (B-Raf V599E); test: Phospho-ERK Western blot in COLO829 cells; assay type: cell-based, human
Method: (§4) The downstream effects of inhibition of a particular kinase (e.g. MEK) can be established by measuring the phosphorylation state of several proteins that require that kinase for phosphorylation (e.g. ERK1). Cultured cells are treated with hypothemycin or other lactone analogs described herein, and Western blots of cell extracts are probed with antibodies specific for the unmodified and phosphorylated forms of the downstream targets. As an example, the effects of hypothemycin on MEK1/2 can be determined by measuring the level of ERK1/2 phosphorylation.
Referring to FIG. 8, B-Raf V599E mutant melanoma cell line COLO829 was incubated with 1 microM hypothemycin for 2, 5, 10, 15, 30, and 60 minutes. The cells were then lysed and the proteins extracted. Equal amounts of total protein from each sample were separated by SDS-PAGE followed by electroblotting to a PVDF membrane. The levels of phospho-ERK present in each extract were visualized by incubation of the membrane with anti-phosphoERK antibody (Cell Signaling Technologies) followed by incubation with an HRP linked secondary antibody. Phospho-ERK containing bands were detected by autoradiography using the ECL Western detection kit (Amersham).

[5] = test system: phosphorylated FLT3, MEK and ERK in MV-4-11 (FLT3(ITD)); test: Phosphorylation state of kinases in MV-4-11 cells; assay type: cell-based; conditions: MV-4-11, FLT3(ITD) mutation
Method: as §4

MEK1 = MEK1 (Homo sapiens, UniProt Q02750); conditions: cited from earlier work
ERK2 = ERK2 (UniProt P28482); assay type: biochemical; set-up: "the target Cys 172 residue; conditions: Table 7
Method: In either case, the time dependent inactivation can be dampened by the presence of a competing substrate, in this case ATP.
For covalent inhibitors, plots of log (activity) versus time provide apparent first-order rate constants (kobsd) of enzyme activity loss. If these assays are performed at varying concentrations of inhibitor, a series of first-order plots is obtained and kobsd obtained at each inhibitor concentration. […] Such molecules may be competitive inhibitors but should not show time-dependent inactivation.
Inhibition progress curve analysis was performed using continuous, colorimetric, or fluorimetric assays. All experiments were done at 1 mM ATP, with the exception of KDR (at 5 mM ATP).
MEK1 assays were performed using pre-incubation experiments with radioactive [^32P]ATP and filter binding of product. All other kinases were analyzed using progress curve analysis from a continuous spectrophotometric assay.

Sequence of MAPK2(h) (P28482 whole entry): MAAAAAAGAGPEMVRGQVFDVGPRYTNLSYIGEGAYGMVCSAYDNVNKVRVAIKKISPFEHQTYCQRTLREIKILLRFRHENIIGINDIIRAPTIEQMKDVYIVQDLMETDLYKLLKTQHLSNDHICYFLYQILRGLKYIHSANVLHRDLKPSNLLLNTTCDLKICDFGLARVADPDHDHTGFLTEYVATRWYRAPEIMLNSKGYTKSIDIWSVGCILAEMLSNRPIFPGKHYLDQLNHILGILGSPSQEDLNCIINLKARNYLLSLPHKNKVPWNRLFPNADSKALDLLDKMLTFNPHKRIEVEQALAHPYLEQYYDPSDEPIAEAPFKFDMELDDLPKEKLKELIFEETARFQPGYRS
Sequence of MAPK1(h) (P27361 whole entry): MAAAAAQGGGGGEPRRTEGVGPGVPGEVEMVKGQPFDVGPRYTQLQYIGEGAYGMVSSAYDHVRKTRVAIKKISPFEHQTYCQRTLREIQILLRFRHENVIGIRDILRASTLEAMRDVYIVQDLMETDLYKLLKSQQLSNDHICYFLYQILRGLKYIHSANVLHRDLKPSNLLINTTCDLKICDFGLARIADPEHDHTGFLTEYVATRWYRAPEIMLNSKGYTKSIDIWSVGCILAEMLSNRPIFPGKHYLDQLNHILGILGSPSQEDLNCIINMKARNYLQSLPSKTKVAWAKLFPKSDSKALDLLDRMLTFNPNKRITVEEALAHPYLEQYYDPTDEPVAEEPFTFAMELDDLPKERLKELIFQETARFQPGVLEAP
Sequence of cSRC(h) (P12931 whole entry): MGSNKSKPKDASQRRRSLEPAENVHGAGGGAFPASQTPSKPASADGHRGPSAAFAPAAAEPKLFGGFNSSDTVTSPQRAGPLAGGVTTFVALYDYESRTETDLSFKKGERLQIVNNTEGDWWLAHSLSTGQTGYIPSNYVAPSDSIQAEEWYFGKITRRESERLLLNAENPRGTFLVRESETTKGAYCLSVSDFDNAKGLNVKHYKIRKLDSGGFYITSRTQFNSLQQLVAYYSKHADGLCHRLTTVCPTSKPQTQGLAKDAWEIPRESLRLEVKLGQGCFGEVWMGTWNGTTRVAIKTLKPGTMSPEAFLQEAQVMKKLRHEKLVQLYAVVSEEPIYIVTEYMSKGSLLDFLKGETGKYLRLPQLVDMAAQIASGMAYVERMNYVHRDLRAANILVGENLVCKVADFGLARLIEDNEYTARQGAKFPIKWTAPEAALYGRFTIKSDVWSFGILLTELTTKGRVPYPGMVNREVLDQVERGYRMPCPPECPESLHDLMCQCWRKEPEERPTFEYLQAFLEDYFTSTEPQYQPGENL
Sequence of Rsk1(h) (Q15418 whole entry): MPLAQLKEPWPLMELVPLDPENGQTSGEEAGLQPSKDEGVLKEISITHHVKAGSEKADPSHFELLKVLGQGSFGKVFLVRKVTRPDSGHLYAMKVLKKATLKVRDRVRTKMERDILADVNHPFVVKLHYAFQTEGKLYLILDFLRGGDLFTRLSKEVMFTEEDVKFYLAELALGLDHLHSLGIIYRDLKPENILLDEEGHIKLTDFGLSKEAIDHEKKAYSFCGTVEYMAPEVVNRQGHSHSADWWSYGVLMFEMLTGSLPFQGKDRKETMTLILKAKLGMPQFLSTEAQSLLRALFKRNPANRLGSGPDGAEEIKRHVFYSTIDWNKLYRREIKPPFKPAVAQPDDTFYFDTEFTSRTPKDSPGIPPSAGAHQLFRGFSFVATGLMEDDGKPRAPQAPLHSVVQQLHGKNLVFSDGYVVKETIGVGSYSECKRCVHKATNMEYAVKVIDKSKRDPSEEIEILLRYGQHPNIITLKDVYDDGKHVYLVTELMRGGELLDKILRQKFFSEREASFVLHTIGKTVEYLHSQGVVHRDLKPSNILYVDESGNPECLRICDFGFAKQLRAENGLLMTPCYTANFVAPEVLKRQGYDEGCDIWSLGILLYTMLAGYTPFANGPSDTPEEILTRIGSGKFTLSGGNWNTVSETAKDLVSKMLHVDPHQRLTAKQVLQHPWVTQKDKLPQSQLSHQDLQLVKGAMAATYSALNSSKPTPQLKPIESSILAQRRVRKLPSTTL
Sequence of CSK(h) (P41240 whole entry): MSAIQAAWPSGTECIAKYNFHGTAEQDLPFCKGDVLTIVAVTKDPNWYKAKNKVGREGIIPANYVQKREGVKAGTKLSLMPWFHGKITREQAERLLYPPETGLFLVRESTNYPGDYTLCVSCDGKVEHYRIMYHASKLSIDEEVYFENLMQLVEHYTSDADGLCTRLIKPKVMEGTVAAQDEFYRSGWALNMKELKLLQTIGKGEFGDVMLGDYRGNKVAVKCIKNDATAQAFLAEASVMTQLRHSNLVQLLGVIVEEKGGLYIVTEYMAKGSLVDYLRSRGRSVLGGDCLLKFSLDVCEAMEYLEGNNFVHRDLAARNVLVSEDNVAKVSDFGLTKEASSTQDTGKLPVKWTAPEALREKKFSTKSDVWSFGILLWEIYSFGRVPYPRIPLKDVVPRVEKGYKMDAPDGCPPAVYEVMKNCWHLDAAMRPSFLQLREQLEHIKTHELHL
Sequence of IRAK4(h) (Q9NWZ3 whole entry): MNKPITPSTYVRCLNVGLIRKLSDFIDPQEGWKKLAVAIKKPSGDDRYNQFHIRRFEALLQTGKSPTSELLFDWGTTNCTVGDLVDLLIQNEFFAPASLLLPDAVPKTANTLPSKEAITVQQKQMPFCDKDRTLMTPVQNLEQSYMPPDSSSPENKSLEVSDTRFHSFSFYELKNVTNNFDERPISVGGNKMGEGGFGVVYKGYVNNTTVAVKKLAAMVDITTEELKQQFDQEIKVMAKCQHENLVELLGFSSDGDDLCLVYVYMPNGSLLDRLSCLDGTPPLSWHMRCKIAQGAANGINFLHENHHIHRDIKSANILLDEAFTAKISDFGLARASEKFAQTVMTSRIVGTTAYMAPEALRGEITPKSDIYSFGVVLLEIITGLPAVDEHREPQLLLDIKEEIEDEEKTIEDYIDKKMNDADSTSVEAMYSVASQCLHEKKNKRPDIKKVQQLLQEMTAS
Sequence of Fes(h) (P07332 whole entry): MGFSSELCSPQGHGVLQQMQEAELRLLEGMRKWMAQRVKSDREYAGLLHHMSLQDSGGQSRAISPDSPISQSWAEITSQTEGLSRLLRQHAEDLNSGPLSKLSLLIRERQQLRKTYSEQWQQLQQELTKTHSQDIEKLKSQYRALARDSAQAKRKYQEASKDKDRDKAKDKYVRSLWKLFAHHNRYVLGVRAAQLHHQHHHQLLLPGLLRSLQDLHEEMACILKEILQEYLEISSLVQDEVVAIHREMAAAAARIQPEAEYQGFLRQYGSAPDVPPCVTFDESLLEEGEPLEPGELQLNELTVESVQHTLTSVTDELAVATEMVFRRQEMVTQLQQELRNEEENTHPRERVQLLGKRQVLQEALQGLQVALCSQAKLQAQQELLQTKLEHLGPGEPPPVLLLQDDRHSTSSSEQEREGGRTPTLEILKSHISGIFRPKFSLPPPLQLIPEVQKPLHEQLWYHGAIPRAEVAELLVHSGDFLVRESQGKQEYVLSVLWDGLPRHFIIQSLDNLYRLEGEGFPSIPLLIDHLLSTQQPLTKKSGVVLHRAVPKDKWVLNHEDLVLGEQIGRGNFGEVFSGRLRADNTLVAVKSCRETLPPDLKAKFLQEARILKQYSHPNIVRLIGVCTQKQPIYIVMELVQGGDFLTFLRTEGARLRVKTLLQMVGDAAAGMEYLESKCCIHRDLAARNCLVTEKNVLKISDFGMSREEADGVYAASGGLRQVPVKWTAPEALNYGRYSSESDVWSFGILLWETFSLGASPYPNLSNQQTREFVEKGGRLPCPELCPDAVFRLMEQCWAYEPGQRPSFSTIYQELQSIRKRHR
Sequence of MEK1 (Q02750 whole entry): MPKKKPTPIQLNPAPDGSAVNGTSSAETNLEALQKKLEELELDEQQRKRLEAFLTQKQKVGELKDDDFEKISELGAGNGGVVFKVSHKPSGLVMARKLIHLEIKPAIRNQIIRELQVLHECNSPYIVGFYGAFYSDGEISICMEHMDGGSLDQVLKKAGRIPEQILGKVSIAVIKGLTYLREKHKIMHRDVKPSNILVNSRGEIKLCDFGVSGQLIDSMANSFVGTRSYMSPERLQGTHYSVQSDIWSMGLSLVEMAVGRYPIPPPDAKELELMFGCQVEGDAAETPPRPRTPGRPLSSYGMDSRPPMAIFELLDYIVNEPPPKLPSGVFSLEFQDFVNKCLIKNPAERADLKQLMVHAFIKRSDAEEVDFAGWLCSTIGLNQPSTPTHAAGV
Sequence of PKCδ(h) (Q05655 whole entry): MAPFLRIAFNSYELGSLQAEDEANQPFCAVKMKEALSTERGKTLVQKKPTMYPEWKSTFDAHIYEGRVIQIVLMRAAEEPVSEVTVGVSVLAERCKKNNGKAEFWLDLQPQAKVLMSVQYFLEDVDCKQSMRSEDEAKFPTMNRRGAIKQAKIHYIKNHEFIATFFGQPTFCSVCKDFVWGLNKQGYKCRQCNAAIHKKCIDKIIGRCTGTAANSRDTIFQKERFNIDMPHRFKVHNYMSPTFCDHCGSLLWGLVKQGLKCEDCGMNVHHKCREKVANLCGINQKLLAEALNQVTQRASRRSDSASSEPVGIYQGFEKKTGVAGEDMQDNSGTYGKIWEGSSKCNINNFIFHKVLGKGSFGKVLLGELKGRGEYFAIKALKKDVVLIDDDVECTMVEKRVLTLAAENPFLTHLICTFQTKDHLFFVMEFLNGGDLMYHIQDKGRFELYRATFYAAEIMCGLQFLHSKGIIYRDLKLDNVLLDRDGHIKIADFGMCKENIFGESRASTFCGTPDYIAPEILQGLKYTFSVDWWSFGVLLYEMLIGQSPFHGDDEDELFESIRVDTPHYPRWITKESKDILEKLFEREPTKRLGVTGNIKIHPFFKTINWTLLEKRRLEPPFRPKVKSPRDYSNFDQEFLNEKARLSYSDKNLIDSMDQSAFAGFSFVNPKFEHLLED

Compound `COc1cc(O)c2c(c1)[C@H]1O[C@@H]1C[C@H](O)[C@H](O)C(=O)/C=C\C[C@H](C)OC2=O` [Hypothemycin, hypothemycin] has a Percent residual activity (p70S6K(h)) of 94%, a remaining activity at 0.2 µM (CDK2/cyclinE(h)) of 105% and a remaining activity at 0.2 µM (CDK3/cyclinE(h)) of 95%. The remaining activity at 0.2 µM (CSK(h)) was 104%, the remaining activity at 0.2 µM (Fes(h)) was 92% and the remaining activity at 0.2 µM (IRAK4(h)) was 84%. For the same compound, the remaining activity at 0.2 µM (MAPK1(h); 0.2 μM) was 79%, the remaining activity at 2 µM (MAPK1(h); 2.0 μM) was 10% and the remaining activity at 0.2 µM (MAPK2(h); 0.2 μM) was 79%. For the same compound, the remaining activity at 2 µM (MAPK2(h); 2.0 μM) was 5%, the remaining activity at 0.2 µM (PKCδ(h)) was 96% and the remaining activity at 0.2 µM (PRK2(h)) was 108%. For the same compound, the remaining activity at 0.2 µM (Pim-1(h)) was 100%, the remaining activity at 0.2 µM (ROCK-II(h)) was 104% and the remaining activity at 0.2 µM (Rse(h)) was 90%. For the same compound, the remaining activity at 0.2 µM (Rsk1(h)) was 100%, the remaining activity at 0.2 µM (cSRC(h); 0.2 μM) was 75% and the remaining activity at 2 µM (cSRC(h); 2.0 μM) was 49%. It also gave an IC50 ([1]; COLO-829, Table 7, COLO829 human melanoma, V600E B-Raf, read-out: Cell Line IC50 COLO829) of 73 ± 17 nM, a GI50 ([1]; Homo sapiens, COLO-829) of 50 nM and an IC50 ([1]; Homo sapiens, COLO-829, read-out: Kinase Inhibitor IC50) of 89 nM. It also gave an IC50 ([2]; HT-29, Table 7, HT29 human colon cancer, V600E B-Raf, read-out: Cell Line IC50 HT29) of 240 ± 170 nM, an IC50 ([2]; Homo sapiens, HT-29, read-out: Kinase Inhibitor IC50) of 100 nM and an IC50 [3] of about 4000 nM. The “time phosphorylated active ERK is absent after removal of the inhibitor” value ([4]; COLO829 (and other BRAF mutant cells)) was about 24 h, the “ERK pathway after a 10 min. exposure” value ([4]; COLO829, concentrations several-fold lower than Kd / sub-micromolar) was “completely shut down” and the “time to depletion of the phosphorylated form of ERK” value ([4]; COLO829 cells, 1 microM hypothemycin, FIG. 8) was at most 10 min. For the same compound, the “phosphorylated forms of FLT3, MEK and ERK” value [5] was “loss of phosphorylated forms”, the “potency as MEK1 inhibitor relative to L-783,277 (fold less potent)” value (MEK1) was 4 fold and the “ERK2 Inhibition kinact.” value (ERK2) was 5 ± 2 × 10^−3 sec^−1. It also gave a Ki (ERK2; read-out: ERK2 Inhibition Ki) of 1900 ± 1100 nM.
